Data set [1] relates to insulin-like growth factor (IGF-1). Put plainly: Plasma IGF-1 response to resistance exercise after HMB-FA ingestion (commercial kit). Format: in vivo, human. An excerpt:
(§1) Twenty resistance trained men (22.3±2.4 y, 1.8±0.1 m, […]) volunteered to participate in this study. Participants were randomly separated into one of two groups: ingestion of HMB free-acid (HMB-FA; n=10) or ingestion of placebo (PL; n=10). Following an explanation of all procedures, risks, and benefits, each participant gave his informed consent prior to participation in this study. The Institutional Review Board for the protection of human subjects of the University of Central Florida approved the research protocol. For inclusion in this study, participants were required to have a minimum of one year of resistance training experience, particularly in the squat exercise. Participants were not permitted to use any additional nutritional supplements or medications while enrolled in this study. Screening for nutritional and hormonal supplements was accomplished via a health history questionnaire completed during participant recruitment.
(§2) The investigation utilized a placebo-controlled, double-blind, randomized design. Participants reported to the laboratory on two occasions. On the first visit (T1), participants were tested for their one-repetition maximum (1-RM) on the barbell back squat, dead lift, and barbell split squat exercises. Participants were instructed to refrain from any form of exercise for a minimum of 72 hours prior to the resistance training bout (T2). On T2, participants completed an intense lower-body resistance exercise session, which consisted of four sets of the barbell back squat, dead lift, and barbell split squat exercises. The barbell back squat exercise was performed with 80% of the participant's 1-RM and the dead lift and barbell split squat exercises were performed with 70% of the participant's 1-RM. Rest intervals were set at 90 s between each set and between exercises. Participants were encouraged to perform as many repetitions as possible up to 10 repetitions for each set. Total training volume, calculated as repetitions×load, was recorded for further analysis.
The HMB-FA supplement consisted of one gram of β-hydroxy-β-methylbutyrate in the free-acid form (Beta-TOR®, Metabolic Technologies Inc., Ames, Iowa), reverse osmosis water, de-bittering agent, flavor, stevia extract, and potassium carbonate. Each serving of placebo contained one gram of polydextrose and was identical to the HMB-FA supplement in appearance and taste. The HMB-FA and PL treatments were produced and supplied by Metabolic Technologies Inc. (Ames, Iowa). One serving of HMB-FA or PL was consumed 30 minutes prior to the exercise session. All HMB-FA and PL ingestion took place in the Human Performance Lab and was witnessed by one of the investigators. […]
(§3) Prior to analysis, all data were assessed to ensure normal distribution, homogeneity of variance, and sphericity. […]

The subject of data set [2] is growth hormone. The data set can be described thus: Growth hormone response to resistance exercise after HMB-FA ingestion (commercial kit). Format: in vivo, human.
Excerpt: as §1
as §2, with “Participants were encouraged to perform as many repetitions as possible up to 10 repetitions for each set.” left out, “analysis. […]” for “analysis.”
as §3

Data set [3] can be described thus: Plasma HMB by gas chromatography-mass spectrometry after HMB-FA ingestion and resistance exercise. Format: in vivo, human. The settings on record: 1 g HMB-FA 30 min prior to exercise, p<0.01.
Excerpt: as §1, with “Participants were not permitted to use any additional nutritional supplements or medications while enrolled in this study. Screening for nutritional and hormonal supplements was accomplished via a health history questionnaire completed during participant recruitment.” left out
The investigation utilized a placebo-controlled, double-blind, randomized design. […] Total training volume, calculated as repetitions×load, was recorded for further analysis. […]
Plasma HMB was analyzed by Metabolic Technologies Inc. by gas chromatography-mass spectrometry with previously outlined methods to confirm HMB appearance in the plasma (17). Myoglobin concentration was determined via a Myoglobin ELISA kit (Calbiotec, Cat no: MG017C, Spring Valley, Calif., USA) and prepared per manufacturer's instructions. Determination of serum immunoreactivity values was determined using a BioTek Eon spectrophotometer (BioTek, Winooski, Vt., USA). […]

The conditions of data set [4]: in vivo; cited from earlier work.
Data set [5] concerns muscle damage. The settings on record: initiated 30 min prior to an acute bout of exercise; cited from earlier work.
Data set [6] concerns insulin. Put plainly: Serum insulin response to the exercise protocol after HMB ingestion. It counts as in vivo, human. The conditions noted are these: acute ingestion and training session.
Excerpt: as §1
(§4) The investigation utilized a placebo-controlled, double-blind, randomized design. Participants reported to the laboratory on two occasions. […] Total training volume, calculated as repetitions×load, was recorded for further analysis. […]
as §3

The conditions of data set [7]: after HMB is fed; cited from earlier work.
The test system of data set [8] is insulin. The conditions noted are these: HMB treated rats, prolonged supplementation; cited from earlier work.
The subject of data set [9] is muscle proteolysis. The conditions noted are these: isolated rat muscle, in vitro; cited from earlier work.
Data set [10] deals with testosterone. Put plainly: Plasma testosterone after HMB-FA ingestion and resistance exercise. Format: in vivo, human. The settings on record: acute ingestion and training session.
Excerpt: as §1, §4, §3

The conditions of data set [11]: healthy young or old adults; cited from earlier work.
Setting [12] is: AUC over PRE, IP, 30P, trapezoidal, p=0.02.

With `CC(C)(O)CC(=O)O` [HMB-FA, β-hydroxy-β-methylbutyric acid], the “IGF-1 concentration vs PL” value in data set [1] (30P) is listed as “No differences were observed between the groups”; in data set [1] (IP) it was “No differences were observed between the groups”; in [1] (PRE (baseline), supplement given 15 min before the PRE blood draw, p=0.012), “elevated at baseline”. For the same molecule, in [1] (setting [12]), the “IGF-1 AUC vs PL” value is “greater IGF-1 response”. For the same molecule, the “Growth hormone concentration, elevation vs PL” value in data set [2] (30P, p=0.100) was “no difference between the groups”; in data set [2] (IP, 1 g HMB-FA 30 min prior to exercise, p=0.021), “significantly higher than PL”. Further, the “Growth hormone AUC vs PL” value in data set [2] (setting [12]) was “significantly higher GH response”. In addition, the “Plasma HMB concentrations” value in data set [3] (30 min post-exercise (30P)) and in data set [3] (immediately post-exercise (IP)) was “significantly elevated” in each case. For the same molecule, the “Absorption compared with CaHMB” value in data set [4] was “absorbed quicker”. Besides, the “Tissue clearance compared with CaHMB” value in data set [4] is reported as “greater tissue clearance”. In addition, the “Attenuating muscle damage and ameliorating inflammatory response compared with CaHMB” value in data set [5] is “more efficacious”.
For the molecule `CC(C)(O)CC(=O)O` [HMB, β-hydroxy-β-methylbutyrate], the “Effect on the insulin response to the exercise protocol” value in data set [6] is “unable to demonstrate any effect”. In addition, the “Loss of HMB to urine” value in data set [7] is recorded as 20-50%. The Resting insulin concentrations result in [8] is on record as “significant increases”. In data set [9], the “Inhibition of muscle proteolysis” value was “potent inhibitor of muscle proteolysis”. Moreover, the Circulating testosterone levels entry in data set [10] was “no differences”. Further, in data set [11], the Side effects result is “no side effects”.
